Measured values from paper PMC11871066, “Structure-based discovery of hydrocarbon-stapled paxillin peptides that block FAK scaffolding in cancer” (Nature Communications, 2025).

Columns and labels:
Experiment in all cases: Eurofins KINOMEscan profiling, 97 kinases
[1] = target: 97 kinases (kinase named in endpoint) (Homo sapiens, UniProt Q16539); settings: read-out: % Ctrl, p38-alpha
[2] = target: 97 kinases (kinase named in endpoint) (Homo sapiens, UniProt P04629); settings: read-out: % Ctrl, TRKA
[3] = target: 97 kinases (kinase named in endpoint) (Homo sapiens, UniProt P78368); settings: read-out: % Ctrl, CSNK1G2
Sequence of 97 kinases (kinase named in endpoint) (Homo sapiens, UniProt P78368) (P78368 whole entry): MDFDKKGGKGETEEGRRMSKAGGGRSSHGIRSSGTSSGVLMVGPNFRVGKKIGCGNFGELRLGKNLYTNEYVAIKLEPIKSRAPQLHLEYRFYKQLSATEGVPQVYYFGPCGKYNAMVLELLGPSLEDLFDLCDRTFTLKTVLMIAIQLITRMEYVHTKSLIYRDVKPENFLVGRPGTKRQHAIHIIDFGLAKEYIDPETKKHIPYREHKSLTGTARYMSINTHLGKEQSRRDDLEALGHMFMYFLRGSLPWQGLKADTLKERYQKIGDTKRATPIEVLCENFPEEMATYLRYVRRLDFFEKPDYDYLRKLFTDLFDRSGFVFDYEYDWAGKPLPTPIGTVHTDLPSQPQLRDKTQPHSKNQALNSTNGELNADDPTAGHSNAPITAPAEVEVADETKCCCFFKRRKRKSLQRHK

[4] = target: 97 kinases (kinase named in endpoint) (Homo sapiens, UniProt O15530); settings: read-out: % Ctrl, PDPK1
[5] = target: 97 kinases (kinase named in endpoint) (Homo sapiens, UniProt Q86UX6); settings: read-out: % Ctrl, YANK3
[6] = target: 97 kinases (kinase named in endpoint) (Homo sapiens, UniProt O15111); settings: read-out: % Ctrl, IKK-alpha
Sequence of 97 kinases (kinase named in endpoint) (Homo sapiens, UniProt O15111) (O15111 whole entry): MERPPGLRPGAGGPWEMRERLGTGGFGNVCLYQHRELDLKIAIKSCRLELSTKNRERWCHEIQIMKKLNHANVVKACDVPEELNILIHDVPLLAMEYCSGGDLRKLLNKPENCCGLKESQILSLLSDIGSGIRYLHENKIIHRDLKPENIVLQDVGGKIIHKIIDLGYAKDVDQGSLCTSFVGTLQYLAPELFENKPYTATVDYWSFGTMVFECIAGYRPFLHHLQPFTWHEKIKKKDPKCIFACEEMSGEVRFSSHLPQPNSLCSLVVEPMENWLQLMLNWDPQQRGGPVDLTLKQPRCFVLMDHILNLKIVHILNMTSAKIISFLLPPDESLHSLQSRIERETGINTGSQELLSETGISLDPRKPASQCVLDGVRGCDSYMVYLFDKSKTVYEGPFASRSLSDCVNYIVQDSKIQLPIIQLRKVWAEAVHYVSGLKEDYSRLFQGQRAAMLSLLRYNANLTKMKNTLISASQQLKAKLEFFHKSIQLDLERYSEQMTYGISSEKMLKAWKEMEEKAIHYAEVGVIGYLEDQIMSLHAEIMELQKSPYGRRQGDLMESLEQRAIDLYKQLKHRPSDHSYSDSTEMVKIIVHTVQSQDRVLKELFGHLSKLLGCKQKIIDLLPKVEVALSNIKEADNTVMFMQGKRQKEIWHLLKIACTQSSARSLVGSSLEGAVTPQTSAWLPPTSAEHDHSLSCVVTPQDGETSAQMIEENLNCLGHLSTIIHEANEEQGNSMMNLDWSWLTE

[7] = target: 97 kinases (kinase named in endpoint) (Homo sapiens, UniProt P04049); settings: read-out: % Ctrl, RAF1
Sequence of 97 kinases (kinase named in endpoint) (Homo sapiens, UniProt P04049) (P04049 whole entry): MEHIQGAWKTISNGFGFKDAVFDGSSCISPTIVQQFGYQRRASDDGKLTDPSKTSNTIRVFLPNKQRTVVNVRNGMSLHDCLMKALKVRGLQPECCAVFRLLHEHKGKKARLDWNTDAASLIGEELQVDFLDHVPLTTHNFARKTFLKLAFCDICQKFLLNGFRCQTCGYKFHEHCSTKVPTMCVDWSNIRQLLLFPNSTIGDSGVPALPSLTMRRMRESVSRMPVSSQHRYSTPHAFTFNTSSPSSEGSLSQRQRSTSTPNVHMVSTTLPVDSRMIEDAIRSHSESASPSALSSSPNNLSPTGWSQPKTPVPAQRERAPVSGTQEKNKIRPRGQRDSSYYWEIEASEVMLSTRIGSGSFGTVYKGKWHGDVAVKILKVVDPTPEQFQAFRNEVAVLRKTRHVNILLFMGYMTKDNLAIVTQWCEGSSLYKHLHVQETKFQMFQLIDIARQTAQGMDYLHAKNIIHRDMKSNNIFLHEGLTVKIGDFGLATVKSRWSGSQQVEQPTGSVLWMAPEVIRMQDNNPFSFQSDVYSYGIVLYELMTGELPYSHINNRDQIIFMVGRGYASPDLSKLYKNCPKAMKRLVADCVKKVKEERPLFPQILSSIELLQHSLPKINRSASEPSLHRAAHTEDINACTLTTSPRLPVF

[8] = target: 97 kinases (kinase named in endpoint) (Homo sapiens, UniProt P06213); settings: read-out: % Ctrl, INSR
[9] = target: 97 kinases (kinase named in endpoint) (Homo sapiens, UniProt P43403); settings: read-out: % Ctrl, ZAP70
Sequence of 97 kinases (kinase named in endpoint) (Homo sapiens, UniProt P43403) (P43403 whole entry): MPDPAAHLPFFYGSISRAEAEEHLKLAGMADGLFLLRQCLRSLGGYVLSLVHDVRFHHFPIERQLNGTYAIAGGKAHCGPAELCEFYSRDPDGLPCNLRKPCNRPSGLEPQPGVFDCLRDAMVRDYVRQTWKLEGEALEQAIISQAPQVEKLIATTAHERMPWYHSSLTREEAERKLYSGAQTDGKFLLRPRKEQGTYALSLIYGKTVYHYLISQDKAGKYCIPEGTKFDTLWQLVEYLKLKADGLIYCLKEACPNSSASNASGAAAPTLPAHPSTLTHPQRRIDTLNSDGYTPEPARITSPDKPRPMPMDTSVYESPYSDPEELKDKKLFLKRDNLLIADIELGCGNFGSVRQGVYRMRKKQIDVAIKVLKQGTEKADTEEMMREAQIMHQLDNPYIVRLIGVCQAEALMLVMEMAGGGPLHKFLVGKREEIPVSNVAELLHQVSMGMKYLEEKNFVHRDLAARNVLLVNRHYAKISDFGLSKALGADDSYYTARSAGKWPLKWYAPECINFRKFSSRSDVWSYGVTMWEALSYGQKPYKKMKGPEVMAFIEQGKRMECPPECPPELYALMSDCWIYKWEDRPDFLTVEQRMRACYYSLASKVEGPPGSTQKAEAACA

[10] = target: 97 kinases (kinase named in endpoint) (Homo sapiens, UniProt P45984); settings: read-out: % Ctrl, JNK2
[11] = target: 97 kinases (kinase named in endpoint) (Homo sapiens, UniProt P08581); settings: read-out: % Ctrl, MET
[12] = target: 97 kinases (kinase named in endpoint) (Homo sapiens, UniProt P27448); settings: read-out: % Ctrl, MARK3
[13] = target: 97 kinases (kinase named in endpoint) (Homo sapiens, UniProt P52333); settings: read-out: % Ctrl, JAK3(JH1domain-catalytic)
[14] = target: 97 kinases (kinase named in endpoint) (Homo sapiens, UniProt P53350); settings: read-out: % Ctrl, PLK1
[15] = target: 97 kinases (kinase named in endpoint) (Homo sapiens, UniProt O60674); settings: read-out: % Ctrl, JAK2(JH1domain-catalytic)
[16] = target: 97 kinases (kinase named in endpoint) (Homo sapiens, UniProt P11309); settings: read-out: % Ctrl, PIM1
Sequence of 97 kinases (kinase named in endpoint) (Homo sapiens, UniProt P11309) (P11309 whole entry): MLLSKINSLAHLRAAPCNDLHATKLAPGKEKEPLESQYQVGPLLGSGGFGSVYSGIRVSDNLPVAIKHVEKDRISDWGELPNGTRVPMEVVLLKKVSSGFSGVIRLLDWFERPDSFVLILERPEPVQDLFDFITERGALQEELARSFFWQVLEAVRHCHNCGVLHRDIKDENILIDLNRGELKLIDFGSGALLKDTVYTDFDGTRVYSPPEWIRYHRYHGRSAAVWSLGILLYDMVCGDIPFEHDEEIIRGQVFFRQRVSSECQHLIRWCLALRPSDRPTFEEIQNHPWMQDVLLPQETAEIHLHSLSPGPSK

[17] = target: 97 kinases (kinase named in endpoint) (Homo sapiens, UniProt Q02156); settings: read-out: % Ctrl, PRKCE
[18] = target: 97 kinases (kinase named in endpoint) (Homo sapiens, UniProt Q9P1W9); settings: read-out: % Ctrl, PIM2
[19] = target: 97 kinases (kinase named in endpoint) (Homo sapiens, UniProt Q05397); settings: read-out: % Ctrl, FAK
[20] = target: 97 kinases (kinase named in endpoint) (Homo sapiens, UniProt Q15759); settings: read-out: % Ctrl, p38-beta
[21] = target: 97 kinases (kinase named in endpoint) (Homo sapiens, UniProt Q9H093); settings: read-out: % Ctrl, SNARK
Sequence of 97 kinases (kinase named in endpoint) (Homo sapiens, UniProt Q9H093) (Q9H093 whole entry): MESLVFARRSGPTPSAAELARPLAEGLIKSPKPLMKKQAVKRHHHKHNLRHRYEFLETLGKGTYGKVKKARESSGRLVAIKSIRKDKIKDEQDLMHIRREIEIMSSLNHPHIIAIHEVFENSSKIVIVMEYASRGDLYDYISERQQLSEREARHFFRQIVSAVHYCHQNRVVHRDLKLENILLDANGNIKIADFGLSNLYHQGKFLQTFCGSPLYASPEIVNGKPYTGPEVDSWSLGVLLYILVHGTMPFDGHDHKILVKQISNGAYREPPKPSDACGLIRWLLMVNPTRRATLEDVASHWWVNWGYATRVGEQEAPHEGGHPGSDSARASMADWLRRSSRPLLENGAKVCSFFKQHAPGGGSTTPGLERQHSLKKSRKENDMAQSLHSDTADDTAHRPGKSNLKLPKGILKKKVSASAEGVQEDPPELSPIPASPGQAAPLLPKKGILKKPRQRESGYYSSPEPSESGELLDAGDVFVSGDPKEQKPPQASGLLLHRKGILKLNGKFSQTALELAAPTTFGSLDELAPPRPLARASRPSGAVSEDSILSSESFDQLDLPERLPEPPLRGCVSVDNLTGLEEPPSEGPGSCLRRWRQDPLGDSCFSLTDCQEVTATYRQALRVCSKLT

[22] = target: 97 kinases (kinase named in endpoint) (Homo sapiens, UniProt Q02750); settings: read-out: % Ctrl, MEK1
[23] = target: 97 kinases (kinase named in endpoint) (Homo sapiens, UniProt Q9BWU1); settings: read-out: % Ctrl, CDK11
[24] = target: 97 kinases (kinase named in endpoint) (Homo sapiens, UniProt Q00536); settings: read-out: % Ctrl, PCTK1
Sequence of 97 kinases (kinase named in endpoint) (Homo sapiens, UniProt Q00536) (Q00536 whole entry): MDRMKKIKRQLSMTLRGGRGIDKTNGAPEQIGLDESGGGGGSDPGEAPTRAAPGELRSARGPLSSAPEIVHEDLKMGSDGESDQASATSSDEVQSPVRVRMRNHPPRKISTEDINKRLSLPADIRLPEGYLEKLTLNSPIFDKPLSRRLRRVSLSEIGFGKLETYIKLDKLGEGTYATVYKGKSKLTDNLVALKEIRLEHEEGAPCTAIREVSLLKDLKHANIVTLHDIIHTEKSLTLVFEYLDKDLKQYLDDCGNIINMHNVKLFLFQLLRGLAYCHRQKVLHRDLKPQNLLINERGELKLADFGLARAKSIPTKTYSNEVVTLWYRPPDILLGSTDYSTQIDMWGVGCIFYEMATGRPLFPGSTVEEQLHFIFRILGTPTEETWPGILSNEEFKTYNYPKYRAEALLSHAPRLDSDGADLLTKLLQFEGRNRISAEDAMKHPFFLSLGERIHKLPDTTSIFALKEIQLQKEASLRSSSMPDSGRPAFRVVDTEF

[25] = target: 97 kinases (kinase named in endpoint) (Homo sapiens, UniProt P10721); settings: read-out: % Ctrl, KIT
Sequence of 97 kinases (kinase named in endpoint) (Homo sapiens, UniProt P10721) (P10721 26-976): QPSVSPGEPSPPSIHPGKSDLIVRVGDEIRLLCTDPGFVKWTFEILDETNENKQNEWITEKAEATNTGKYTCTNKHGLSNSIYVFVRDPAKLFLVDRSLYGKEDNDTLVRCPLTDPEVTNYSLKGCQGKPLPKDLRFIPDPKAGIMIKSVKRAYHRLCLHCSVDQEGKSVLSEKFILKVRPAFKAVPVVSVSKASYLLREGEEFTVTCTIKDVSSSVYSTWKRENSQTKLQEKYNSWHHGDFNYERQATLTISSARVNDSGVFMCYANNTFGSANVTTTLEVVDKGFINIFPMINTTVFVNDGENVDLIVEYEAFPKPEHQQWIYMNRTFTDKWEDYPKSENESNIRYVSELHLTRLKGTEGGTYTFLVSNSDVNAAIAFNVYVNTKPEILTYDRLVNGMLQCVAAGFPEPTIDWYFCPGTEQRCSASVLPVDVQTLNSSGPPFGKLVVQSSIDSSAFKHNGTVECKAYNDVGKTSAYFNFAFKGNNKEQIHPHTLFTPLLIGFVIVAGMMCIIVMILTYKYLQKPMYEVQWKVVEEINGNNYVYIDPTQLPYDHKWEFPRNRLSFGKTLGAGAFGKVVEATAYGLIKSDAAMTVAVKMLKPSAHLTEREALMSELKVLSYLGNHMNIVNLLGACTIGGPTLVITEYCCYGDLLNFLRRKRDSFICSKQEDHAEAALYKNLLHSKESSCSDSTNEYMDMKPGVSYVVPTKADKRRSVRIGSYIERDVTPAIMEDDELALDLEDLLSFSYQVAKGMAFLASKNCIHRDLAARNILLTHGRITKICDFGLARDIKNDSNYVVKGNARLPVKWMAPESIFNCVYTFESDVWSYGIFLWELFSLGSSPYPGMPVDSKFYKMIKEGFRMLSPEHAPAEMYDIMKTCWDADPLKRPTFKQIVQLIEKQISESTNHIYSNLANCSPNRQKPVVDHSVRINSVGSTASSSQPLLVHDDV

[26] = target: 97 kinases (kinase named in endpoint) (Homo sapiens, UniProt P50613); settings: read-out: % Ctrl, CDK7
[27] = target: 97 kinases (kinase named in endpoint) (Homo sapiens, UniProt Q9UM73); settings: read-out: % Ctrl, ALK
[28] = target: 97 kinases (kinase named in endpoint) (Homo sapiens, UniProt P50750); settings: read-out: % Ctrl, CDK9

| SMILES | remaining binding at 1 µM [1] [%] | remaining binding at 1 µM [2] [%] | remaining binding at 1 µM [3] [%] | remaining binding at 1 µM [4] [%] | remaining binding at 1 µM [5] [%] | remaining binding at 1 µM [6] [%] | remaining binding at 1 µM [7] [%] | remaining binding at 1 µM [8] [%] | remaining binding at 1 µM [9] [%] | remaining binding at 1 µM [10] [%] | remaining binding at 1 µM [11] [%] | remaining binding at 1 µM [12] [%] | remaining binding at 1 µM [13] [%] | remaining binding at 1 µM [14] [%] | remaining binding at 1 µM [15] [%] | remaining binding at 1 µM [16] [%] | remaining binding at 1 µM [17] [%] | remaining binding at 1 µM [18] [%] | remaining binding at 1 µM [19] [%] | remaining binding at 1 µM [20] [%] | also measured |
| --- | --- | --- | --- | --- | --- | --- | --- | --- | --- | --- | --- | --- | --- | --- | --- | --- | --- | --- | --- | --- | --- |
| CCCCCCCCCCCCCC(=O)N[C@@H](CC(N)=O)C(=O)N[C@@H](CC(C)C)C(=O)N[C@]1(C)CCCCCCC=CCCC[C@@](C)(C(=O)N[C@@H](CCC(=O)O)C(=O)N[C@@H](CC(C)C)C(=O)N[C@@H](CC(N)=O)C(N)=O)NC(=O)[C@H](CC(C)C)NC(=O)[C@H](CC(C)C)NC(=O)[C@H](CCCNC(=N)N)NC(=O)[C@H](CC(=O)O)NC(=O)[C@H](CC(C)C)NC(=O)[C@H](CCC(=O)O)NC1=O [compound 2012] | 98 | 100 | 99 | 99 | 91 | 100 | 81 | 100 | 96 | 100 | 100 | 91 | 83 | 89 | 87 | 100 | 53 | 100 | 96 | 98 | remaining binding at 1 µM [21]: 100%; remaining binding at 1 µM [22]: 94%; remaining binding at 1 µM [23]: 87%; remaining binding at 1 µM [24]: 100%; remaining binding at 1 µM [25]: 96%; remaining binding at 1 µM [26]: 69%; remaining binding at 1 µM [27]: 100%; remaining binding at 1 µM [28]: 100% |
| CNC(=O)c1ccc(Nc2ncc(C(F)(F)F)c(NCc3nccnc3N(C)S(C)(=O)=O)n2)cc1 [defactinib] | 100 | 1 | 39 | 50 | 89 | 100 | 86 | 61 | 95 | 52 | 15 | 50 | 0 | 17 | 0.1 | 73 | 42 | 100 | 0.1 | 89 | remaining binding at 1 µM [21]: 13%; remaining binding at 1 µM [22]: 83%; remaining binding at 1 µM [23]: 97%; remaining binding at 1 µM [24]: 48%; remaining binding at 1 µM [25]: 47%; remaining binding at 1 µM [26]: 22%; remaining binding at 1 µM [27]: 32%; remaining binding at 1 µM [28]: 90% |
